Literature values, collected in patent publication US7476665B2, “Benzodiazepine CGRP receptor antagonists” (Merck & Co., Inc., priority 2003, dated 2009).
Like-named read-outs stand apart in the source and are kept apart here. Where no end group is shown, it is not given here.

Columns and labels:
[1] = tested on: facial blood flow; settings: marmoset, electrical stimulation of the trigeminal ganglion (Doods et al. 2000)
[2] = tested on: middle meningeal artery; settings: rats, electrical stimulation of the dura mater, prior administration (Williamson et al. 1997)
[3] = tested on: facial blood flow; settings: rat, trigeminal ganglion stimulation (Escott et al. 1995)

Row | Compound | effect on increase of facial blood flow [1] | effect on increase of middle meningeal artery diameter [2] | effect on increase of facial blood flow [3]
1 | NCCCC[C@H](NC(=O)[C@@H](Cc1cc(Br)c(O)c(Br)c1)NC(=O)N1CCC(N2Cc3ccccc3NC2=O)CC1)C(=O)N1CCN(c2ccncc2)CC1 [BIBN4096BS] | blocked |  | 
2 | CGRP(8-37): a peptide CGRP antagonist (VTHRLAGLLSRSGGVVKNNFVPTNVGSKAF; ends and bridges not checked; UniProt P06881 90-119, looked up, fragment) |  | blocked | inhibited
